Measurements reported in US6914045B2, “Glycopeptide antibiotics” (Wyeth Holdings Corporation, priority 2001, dated 2005).
Values after ≈ are worked out from the molar mass of the structure shown.

Legend:
Assay in all cases: in vitro antibacterial evaluation, MIC by broth dilution
Type in all cases: cell-based
Escherichia coli = conditions: 18 hours at 35° C.
Staphylococcus sp. = conditions: broth dilution, 18 hours at 35° C.
Outline: (§1)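 Step 1: dilute antibiotic across 64-0.06 μg/mL in Muller-Hinton II […]. Step 2: inoculate at 5×10^5 CFU/mL.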

Streptococcus sp. = conditions: broth dilution, 18 hours at 35° C.
Outline: as §1

Enterococcus sp. = conditions: broth dilution, 18 hours at 35° C.
Outline: as §1

- MIC Escherichia coli (ATCC 25922) (Escherichia coli): >128 µg/mL
- MIC Escherichia coli (GC 4559) (Escherichia coli): >128 µg/mL
- MIC Escherichia coli (GC 4560) (Escherichia coli): 32 µg/mL (≈ 22 µM)
- MIC Coagulase Negative Staphylococcus (GC 4547) (Staphylococcus sp.): >128 µg/mL
- MIC Coagulase Negative Staphylococcus (GC 4548) (Staphylococcus sp.): >128 µg/mL
- MIC Coagulase Negative Staphylococcus (GC 4549) (Staphylococcus sp.): >128 µg/mL
- MIC Coagulase Negative Staphylococcus (GC 4551) (Staphylococcus sp.): >128 µg/mL
- MIC Coagulase Negative Staphylococcus (GC 6257) (Staphylococcus sp.): >128 µg/mL
- MIC Staphylococcus aureus (ATCC 29213) (Staphylococcus sp.): >128 µg/mL
- MIC Staphylococcus aureus (GC 1131) (Staphylococcus sp.): >128 µg/mL
- MIC Staphylococcus aureus (GC 3051) (Staphylococcus sp.): >128 µg/mL
- MIC Staphylococcus aureus (GC 3053) (Staphylococcus sp.): >128 µg/mL
- MIC Staphylococcus aureus (GC 4541) (Staphylococcus sp.): >128 µg/mL
- MIC Staphylococcus aureus (GC 4542) (Staphylococcus sp.): >128 µg/mL
- MIC Staphylococcus aureus (GC 4544) (Staphylococcus sp.): >128 µg/mL
- MIC Staphylococcus aureus (GC 4545) (Staphylococcus sp.): >128 µg/mL
- MIC Staphylococcus aureus-SMITH (GC 4543) (Staphylococcus sp.): >128 µg/mL
- MIC Staphylococcus aureus (ATCC 29213) (Staphylococcus sp.; strain ATCC 29213): >128 µg/mL
- MIC Staphylococcus aureus (GC 1131) (Staphylococcus sp.; strain GC 1131): >128 µg/mL
- MIC Staphylococcus aureus (GC 3051) (Staphylococcus sp.; strain GC 3051): >128 µg/mL
- MIC Staphylococcus aureus (GC 3053) (Staphylococcus sp.; strain GC 3053): >128 µg/mL
- MIC Staphylococcus aureus (GC 4541) (Staphylococcus sp.; strain GC 4541): >128 µg/mL
- MIC Staphylococcus aureus (GC 4542) (Staphylococcus sp.; strain GC 4542): >128 µg/mL
- MIC Staphylococcus aureus-SMITH (GC 4543) (Staphylococcus sp.; strain GC 4543): >128 µg/mL
- MIC Staphylococcus aureus (GC 4544) (Staphylococcus sp.; strain GC 4544): >128 µg/mL
- MIC Staphylococcus aureus (GC 4545) (Staphylococcus sp.; strain GC 4545): >128 µg/mL
- MIC Coagulase Negative Staphylococcus (GC 4547) (Staphylococcus sp.; strain GC 4547): >128 µg/mL
- MIC Coagulase Negative Staphylococcus (GC 4548) (Staphylococcus sp.; strain GC 4548): >128 µg/mL
- MIC Coagulase Negative Staphylococcus (GC 4549) (Staphylococcus sp.; strain GC 4549): >128 µg/mL
- MIC Coagulase Negative Staphylococcus (GC 4551) (Staphylococcus sp.; strain GC 4551): >128 µg/mL
- MIC Coagulase Negative Staphylococcus (GC 6257) (Staphylococcus sp.; strain GC 6257): >128 µg/mL
- MIC Streptococcus agalactiae (GC 4564) (Streptococcus sp.): >128 µg/mL
- MIC Streptococcus pneumoniae (ATCC 6301) (Streptococcus sp.): 128 µg/mL (≈ 87.9 µM)
- MIC Streptococcus pneumoniae (GC 1894) (Streptococcus sp.): 128 µg/mL (≈ 87.9 µM)
- MIC Streptococcus pneumoniae (GC 4565) (Streptococcus sp.): 128 µg/mL (≈ 87.9 µM)
- MIC Streptococcus pyogenes (GC 4563) (Streptococcus sp.): >128 µg/mL
- MIC Streptococcus pneumoniae (ATCC 6301) (Streptococcus sp.; inoculum 5×10^5 CFU/mL, strain ATCC 6301): 128 µg/mL (≈ 87.9 µM)
- MIC Streptococcus pneumoniae (GC 1894) (Streptococcus sp.; inoculum 5×10^5 CFU/mL, strain GC 1894): 128 µg/mL (≈ 87.9 µM)
- MIC Streptococcus pyogenes (GC 4563) (Streptococcus sp.; inoculum 5×10^5 CFU/mL, strain GC 4563): >128 µg/mL
- MIC Streptococcus agalactiae (GC 4564) (Streptococcus sp.; inoculum 5×10^5 CFU/mL, strain GC 4564): >128 µg/mL
- MIC Streptococcus pneumoniae (GC 4565) (Streptococcus sp.; inoculum 5×10^5 CFU/mL, strain GC 4565): 128 µg/mL (≈ 87.9 µM)
- MIC Enterococcus avium (GC 4558) (Enterococcus sp.): 64 µg/mL (≈ 44 µM)
- MIC Enterococcus faecalis (ATCC 29212) (Enterococcus sp.): >128 µg/mL
- MIC Enterococcus faecalis (GC 2242) (Enterococcus sp.): 128 µg/mL (≈ 87.9 µM)
- MIC Enterococcus faecalis (GC 2691) (Enterococcus sp.): >128 µg/mL
- MIC Enterococcus faecalis (GC 3059) (Enterococcus sp.): >128 µg/mL
- MIC Enterococcus faecalis (GC 4552) (Enterococcus sp.): >128 µg/mL
- MIC Enterococcus faecalis (GC 4553) (Enterococcus sp.): 128 µg/mL (≈ 87.9 µM)
- MIC Enterococcus faecalis (GC 4554) (Enterococcus sp.): >128 µg/mL
- MIC Enterococcus faecalis (GC 6189) (Enterococcus sp.): >128 µg/mL
- MIC Enterococcus faecium (GC 2243) (Enterococcus sp.): >128 µg/mL
- MIC Enterococcus faecium (GC 4556) (Enterococcus sp.): >128 µg/mL
- MIC Enterococcus faecium (GC 4557) (Enterococcus sp.): 128 µg/mL (≈ 87.9 µM)
- MIC Enterococcus faecalis (ATCC 29212) (Enterococcus sp.; inoculum 5×10^5 CFU/mL, strain ATCC 29212): >128 µg/mL
- MIC Enterococcus faecalis (GC 2242) (Enterococcus sp.; inoculum 5×10^5 CFU/mL, strain GC 2242): 128 µg/mL (≈ 87.9 µM)
- MIC Enterococcus faecium (GC 2243) (Enterococcus sp.; inoculum 5×10^5 CFU/mL, strain GC 2243): >128 µg/mL
- MIC Enterococcus faecalis (GC 2691) (Enterococcus sp.; inoculum 5×10^5 CFU/mL, strain GC 2691): >128 µg/mL
- MIC Enterococcus faecalis (GC 3059) (Enterococcus sp.; inoculum 5×10^5 CFU/mL, strain GC 3059): >128 µg/mL
- MIC Enterococcus faecalis (GC 4552) (Enterococcus sp.; inoculum 5×10^5 CFU/mL, strain GC 4552): >128 µg/mL
- MIC Enterococcus faecalis (GC 4553) (Enterococcus sp.; inoculum 5×10^5 CFU/mL, strain GC 4553): 128 µg/mL (≈ 87.9 µM)
- MIC Enterococcus faecalis (GC 4554) (Enterococcus sp.; inoculum 5×10^5 CFU/mL, strain GC 4554): >128 µg/mL
- MIC Enterococcus faecium (GC 4556) (Enterococcus sp.; inoculum 5×10^5 CFU/mL, strain GC 4556): >128 µg/mL
- MIC Enterococcus faecium (GC 4557) (Enterococcus sp.; inoculum 5×10^5 CFU/mL, strain GC 4557): 128 µg/mL (≈ 87.9 µM)
- MIC Enterococcus avium (GC 4558) (Enterococcus sp.; inoculum 5×10^5 CFU/mL, strain GC 4558): 64 µg/mL (≈ 44 µM)
- MIC Enterococcus faecalis (GC 6189) (Enterococcus sp.; inoculum 5×10^5 CFU/mL, strain GC 6189): >128 µg/mL
SMILES: CC(c1ccccc1)C1NC(=O)CNC(=O)C(CO)NC(=O)C(C(O)C2CNC(=N)N2C2OC(CO)C(O)C3OC(C)(C)OC32)NC(=O)C(C(O)C2CNC(=N)N2)NC(=O)C(Cc2ccc(OC3OC(CO)C(OC4OC5COC(C)(C)OC5C5OC(C)(C)OC45)C4OC(C)(C)OC34)cc2)NC1=O (stereo not shown) [Example 229b]
- MIC Staphylococcus haemolyticus (GC 4546) (Staphylococcus sp.): >128 µg/mL
- MIC Staphylococcus haemolyticus (GC 4546) (Staphylococcus sp.; strain GC 4546): >128 µg/mL
